Experiments:
[1] = biological target: T1, LD from human heart (Homo sapiens, UniProt P07195); assay: Inhibition of LD activity in human heart extract by high pyruvate, without preincubation (present method); format: biochemical
T1 construct: Human tissue extracts were prepared by sonic disruption; from tissue; host or cells: human heart, crude extract (sonicated, supernatant of centrifugation)
Experimental: (§1) Preparation of tissue. Human tissue extracts were prepared by sonic disruption (at 4° l C. for 1 min.) of 1 g (wet weight) of tissue in 9 ml of potassium phosphate buffer (0.1 mol/liter, pH 7.0). The homogenates were centrifuged at 4° C. at 5×10^4 g for 10 min.; and the superiors were promptly examined for LD activity and stored at -80° C.
(§2) Assay for total LD activity. The measurements were at 340 nm and 25° C. in a Model 240 (Gilford Instrument, Oberlin, Ohio 44074) digital kinetic spectrophotometer when manual determinations were needed to supply data for calibration curves with purified enzymes or with tissue extracts, and for serum assays in the preliminary stages of developing the method. Sera were assayed at 25° C. in a centrifugal analyzer (GEMSAEC; Electronucleonics, Inc., Fairfield, N.J. 07006) after the optimum conditions were known to be suitable for manual determinations. For automated determinations 500 ul of pyruvate reaction mixture and 50 ul of serum (an 11-fold dilution of the serum) were required. Conditions for measuring total LD activity were: 0.34 mmol of pyruvate and 0.13 mmcl of NADH per liter of the phosphate buffer. The molar absorptivity 6.22×10^3 liter mol^-1 cm^-1 for NADH was used in calculating enzyme activity in IUB units.
(§3) Kinetic determination of isoenzymes. LD's are inhibited by their substrate, the H-type LD being inhibited by pyruvate to a greater extent than the M-type LD. This inhibition, related to the formation of an abortive ternary complex, was the basis of the method that has been used to distinguish the heart enzyme from the muscle enzyme after preincubation. […]

[2] = biological target: T2, LD from human liver (Homo sapiens, UniProt P00338); assay: Inhibition of LD activity in human liver extract by high pyruvate, without preincubation (present method); format: biochemical
T2 construct: Human tissue extracts were prepared by sonic disruption; from tissue; host or cells: human liver, crude extract (sonicated, supernatant of centrifugation)
Experimental: as §1, §2, §3

[3] = biological target: chicken heart LD (Gallus gallus, UniProt P00337); assay: Inhibition of chicken heart LD by pyruvate; format: biochemical; details: 3.4 mmol/liter pyruvate
Sequence of chicken heart LD (P00337 whole entry): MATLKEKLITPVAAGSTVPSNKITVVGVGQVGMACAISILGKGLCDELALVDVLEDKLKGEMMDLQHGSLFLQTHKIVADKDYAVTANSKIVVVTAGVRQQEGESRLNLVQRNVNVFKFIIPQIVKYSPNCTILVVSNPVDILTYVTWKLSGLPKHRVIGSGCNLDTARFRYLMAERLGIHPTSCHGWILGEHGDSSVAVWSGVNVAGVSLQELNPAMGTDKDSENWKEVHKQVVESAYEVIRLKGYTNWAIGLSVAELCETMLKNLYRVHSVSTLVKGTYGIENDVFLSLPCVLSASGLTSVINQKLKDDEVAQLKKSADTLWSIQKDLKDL
Experimental: as §2
(§4) Assay conditions. Studies of the pH dependence of the inhibition of chicken heart LD at an initial substrate concentration of 3.4 mmol/liter pyruvate (control rate, 0.1 absorbance unit change per minute at 0.34 mmol/liter pyruvate) indicated the pH for maximum inhibition of LD activity to be pH 7, although pH 6.5 was also suitable for the inhibition. […]

[4] = test system: rabbit muscle LD; assay: Activity/inhibition of crystalline rabbit muscle LD at high pyruvate; format: biochemical
Experimental: as §2, §4

[5] = test system: LD from human kidney; assay: Inhibition of human kidney LD, present method; format: biochemical; details: mean ± 2 SD, at least seven sources
Experimental: as §1, §2
(§5) Kinetic determination of isoenzymes. […]

[6] = test system: LD from human brain; assay: Inhibition of human brain LD, present method; format: biochemical; details: mean ± 2 SD, at least seven sources
Experimental: as §1, §2, §5

[7] = test system: LD from human spleen; assay: Inhibition of human spleen LD, present method; format: biochemical; details: mean ± 2 SD, at least seven sources
Experimental: as §1, §2, §5

[8] = test system: LD from human muscle; assay: Inhibition of human muscle LD, present method; format: biochemical; details: mean ± 2 SD, at least seven sources
Experimental: as §1, §2, §5

[9] = test system: H-type LD; assay: Kinetic determination of isoenzymes: inhibition of human H-type LD without preincubation; format: biochemical; details: 5 mmol pyruvate and 0.13 mmol NADH per liter, phosphate buffer pH 7.0
Experimental: (§6) Kinetic determination of isoenzymes. LD's are inhibited by their substrate, the H-type LD being inhibited by pyruvate to a greater extent than the M-type LD. This inhibition, related to the formation of an abortive ternary complex, was the basis of the method that has been used to distinguish the heart enzyme from the muscle enzyme after preincubation.
(§7) Conditions for inhibiting the human LD activity without any preincubation were: 5 mmol of pyruvate and 0.13 mmol of NADH per liter of 100 l mmol/liter potassium phosphate buffer, pH 7.0.

[10] = test system: M-type LD; assay: Kinetic determination of isoenzymes: inhibition of human M-type LD without preincubation; format: biochemical; details: 5 mmol pyruvate and 0.13 mmol NADH per liter, phosphate buffer pH 7.0
Experimental: as §6, §7

[11] = biological target: T1, LD from human heart; details: previously reported, mean ± 2 SD; cited from earlier work
[12] = biological target: T2, LD from human liver; details: previously reported, mean ± 2 SD; cited from earlier work
[13] = test system: LD from human kidney; details: previously reported, mean ± 2 SD; cited from earlier work
[14] = test system: LD from human brain; details: previously reported, mean ± 2 SD; cited from earlier work
[15] = test system: LD from human spleen; details: previously reported, mean ± 2 SD; cited from earlier work
[16] = test system: LD from human muscle; details: previously reported, mean ± 2 SD; cited from earlier work
[17] = present method, mean ± 2 SD, at least seven sources

T1 sequence (P07195 2-334): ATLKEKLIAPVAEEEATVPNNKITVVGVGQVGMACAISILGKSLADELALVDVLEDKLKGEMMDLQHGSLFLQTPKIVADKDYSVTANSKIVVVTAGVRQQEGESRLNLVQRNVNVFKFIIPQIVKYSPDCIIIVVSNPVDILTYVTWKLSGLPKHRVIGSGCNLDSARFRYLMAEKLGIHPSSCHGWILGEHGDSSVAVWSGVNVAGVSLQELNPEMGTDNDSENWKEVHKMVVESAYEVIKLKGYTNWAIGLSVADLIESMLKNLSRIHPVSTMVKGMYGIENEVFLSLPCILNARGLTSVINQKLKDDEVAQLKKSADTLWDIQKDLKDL

CC(=O)C(=O)[O-].[Na+] [pyruvate, Sodium pyruvate]
Percent inhibition, Heart ([1]; 5 mmol/liter pyruvate, pH 6): 90%
Percent inhibition, Heart ([1]; 5 mmol/liter pyruvate, pH 7): 69%
Percent inhibition, Heart ([1]; 5 mmol/liter pyruvate, pH 8): 40%
Percent inhibition, Heart ([1]; 10 mmol/liter pyruvate, pH 6): 91%
Percent inhibition, Heart ([1]; 10 mmol/liter pyruvate, pH 7): 79%
Percent inhibition, Heart ([1]; 10 mmol/liter pyruvate, pH 8): 50%
Percent inhibition, Present method, Heart [1, 17]: 60.8 ± 10.8%
Percent inhibition, Liver ([2]; 5 mmol/liter pyruvate, pH 6): 53%
Percent inhibition, Liver ([2]; 5 mmol/liter pyruvate, pH 7): 20%
Percent inhibition, Liver ([2]; 5 mmol/liter pyruvate, pH 8, negative sign = increased rate): -19%
Percent inhibition, Liver ([2]; 10 mmol/liter pyruvate, pH 6): 65%
Percent inhibition, Liver ([2]; 10 mmol/liter pyruvate, pH 7): 50%
Percent inhibition, Liver ([2]; 10 mmol/liter pyruvate, pH 8, negative sign = increased rate): -14%
Percent inhibition, Present method, Liver [2, 17]: 17.6 ± 11.8%
pH for maximum inhibition of LD activity [3]: 7
inhibition of chicken heart LD ([3]; pH 8 and above): no inhibition was seen
reaction rate, % of the maximum velocity ([4]; 3.4 mmol/liter pyruvate): 114%
inhibition of rabbit muscle LD ([4]; 10 mmol/liter pyruvate): 2%
Percent inhibition, Present method, Kidney [5]: 53.1 ± 5.0%
Percent inhibition, Present method, Brain [6]: 50.6 ± 8.4%
Percent inhibition, Present method, Spleen [7]: 43.5 ± 9.0%
Percent inhibition, Present method, Muscle [8]: 16.1 ± 11.8%
inhibition of the H-type LD [9]: more than 50%
inhibition of the M-type LD [10]: slight inhibition
Percent inhibition, Preincubation method, Heart [11]: 61.1 ± 8.3%
Percent inhibition, Preincubation method, Liver [12]: 18.3 ± 10.0%
Percent inhibition, Preincubation method, Kidney [13]: 53.0 ± 15.1%
Percent inhibition, Preincubation method, Brain [14]: 59.0 ± 6.6%
Percent inhibition, Preincubation method, Spleen [15]: 41.3 ± 8.5%
Percent inhibition, Preincubation method, Muscle [16]: 17.3 ± 12.2%
